# Literature values in US9657007B2, “Substituted aminopyrimidine compounds and methods of use” (Calitor Sciences, LLC, priority 2013, dated 2017).
# Legend:
# [1] = system: mouse model of rheumatoid arthritis; details: in vivo
# [2] = system: model of systemic lupus erythematosis; details: in vivo
# [3] = system: protein kinases
# [4] = system: murine model of asthma using ovalbumin-induced airway inflammation
# [5] = system: PI3Kδ; details: potency range in words
SMILES,efficacy in a mouse model of rheumatoid arthritis [1],onset of disease in a model of systemic lupus erythematosis [2],activity against any protein kinases tested [3],inflammation and disease in a murine model of asthma [4],inhibits PI3Kδ [5]
O=C1NC(=O)/C(=C\c2ccc3nccnc3c2)S1 [AS 605240],efficacious,delay onset of disease,,,
Cc1ccccc1-n1c(Cn2cnc3c(N)ncnc32)nc2cccc(C)c2c1=O [IC87114],,,no activity,significantly ameliorate inflammation and disease,high nanomolar range (triple digit)
